Test results as given in patent US20030017148A1, “Prevention of insulin-dependent diabetes, complications thereof, or allograft rejection by inhibition of cyclooxygenase-2 activity” (Oklahoma Medical Research Foundation, priority 2000, published 2003).
Several values for one entry are separate records, joined by “and”; a condition that tells them apart may be missing. Equal values may be shown once.

Experiments:
[1] = in vivo; cited from earlier work
COX-2 = target: T1, COX-2 (Homo sapiens, UniProt P35354); conditions: cellular systems; cited from earlier work
T1 sequence (P35354 18-604): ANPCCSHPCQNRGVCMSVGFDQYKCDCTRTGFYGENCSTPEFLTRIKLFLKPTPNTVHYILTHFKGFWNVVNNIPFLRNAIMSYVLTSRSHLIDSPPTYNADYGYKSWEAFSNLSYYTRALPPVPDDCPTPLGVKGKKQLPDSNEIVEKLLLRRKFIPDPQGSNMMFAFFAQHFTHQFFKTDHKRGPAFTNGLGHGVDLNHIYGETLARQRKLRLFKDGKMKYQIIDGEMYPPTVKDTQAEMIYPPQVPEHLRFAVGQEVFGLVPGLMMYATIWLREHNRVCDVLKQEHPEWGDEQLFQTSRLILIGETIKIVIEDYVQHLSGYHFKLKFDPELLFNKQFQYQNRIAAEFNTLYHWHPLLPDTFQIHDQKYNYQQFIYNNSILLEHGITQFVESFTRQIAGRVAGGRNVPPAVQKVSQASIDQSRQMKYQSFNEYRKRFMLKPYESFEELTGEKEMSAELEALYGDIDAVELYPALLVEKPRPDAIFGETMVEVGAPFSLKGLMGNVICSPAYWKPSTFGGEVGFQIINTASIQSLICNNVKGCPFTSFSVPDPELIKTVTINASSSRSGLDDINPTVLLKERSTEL

STZ-induced IDDM [2] = assay: Multiple low-dose STZ-induced IDDM in CD-1 mice, PDTC treatment; type: in vivo; conditions: for Blood Glucose Level: STZ 40 mg/Kg 5 days, PDTC 150 mg/Kg daily, 100 mg/Kg from day 7, 11 treatments
Experimental: Method. CD-1 mice were divided into two groups (6 mice/group). Group 1 was treated with STZ (40 mg/Kg dissolved in cold sodium citrate buffer, pH 4.5) for 5 consecutive days. Group 2 was treated with STZ as described and received daily treatments of PDTC (150 mg/Kg, dissolved in physiological saline) starting from day 1 of STZ treatment. The PDTC dose was reduced to 100 mg/Kg at day 7 of the treatment. A total of 11 daily treatments of PDTC were given to the mice in this group (up to day 11 from the start of STZ treatment). Blood glucose levels were periodically determined in these mice.

STZ-induced IDDM [3] = assay: Multiple low-dose STZ-induced IDDM in mice, NS-398 treatment; type: in vivo
Experimental: Chemicals: Streptozotocin was obtained from Sigma Chemical Company (St. Louis, Mo.). NS-398 was obtained from Cayman Chemicals (Ann Arbor, Mich.). Determination of blood glucose level was performed using the glucose oxidase kit obtained from Sigma Chemical Co. Total glycated hemoglobin (Hb A1) was measured using a kit from Sigma. Animal treatment: Ball/c or CD-1 mice (male, 6-8 weeks) from Charles-River (Indianapolis, Ind.) were used in this study. STZ was dissolved in citrate buffer pH 4.5 and was administered within 10 minutes of its dissolution. Animals receiving NS-398 treatment were injected with this compound 15 min prior to STZ treatment. Since STZ is both toxic and carcinogenic, extreme caution was practiced in its handling. NS-398 was dissolved in dimethylsulfoxide (DMSO). […] To control for the effect of DMSO, mice in the STZ group received 40 μl injections of DMSO for the same number of days as the STZ+NS-398 group. At different time intervals after the treatments, tail tip blood was drawn and used for the measurement of blood glucose levels and/or glycated hemoglobin. [table] […] PBS (control group) for 5 consecutive days. […] The STZ group received only STZ injections. […] For histological studies, 35 days following the treatments (multiple low-dose STZ±NS-398), mice were anaesthetized and perfused with 4% paraformaldehyde and pancreata were removed and post-fixed for an additional day. The paraffin sections (6 μ) were stained with Gambier's aldehyde fuchsia for the identification of pancreatic β cells. Untreated mice were used as controls for these studies. Statistical analyses: Statistical analyses of the data were performed using one way analysis of variance (Anoa) followed by Student's t-test. In order to determine whether NS-398 treatment would protect the animals against the diabetogenic action of STZ, blood glucose level, and the level of glycated hemoglobin (a marker of chronic hyperglycemia) were monitored in the mice treated with STZ in the absence and presence of NS-398. Histological studies were also performed on the pancreata of the treated animals in order to obtain morphological information on the status of the islet β cells.

[4] = tested on: high-dose STZ-induced IDDM; assay: Single high-dose STZ-induced IDDM in mice, NS-398 pre-treatment; type: in vivo; conditions: 48 h after single STZ 220 mg/Kg; NS-398 10 mg/Kg 15 min prior to STZ
Experimental: Animal treatment: Ball/c or CD-1 mice (male, 6-8 weeks) from Charles-River (Indianapolis, Ind.) were used in this study. STZ was dissolved in citrate buffer pH 4.5 and was administered within 10 minutes of its dissolution. Animals receiving NS-398 treatment were injected with this compound 15 min prior to STZ treatment. Since STZ is both toxic and carcinogenic, extreme caution was practiced in its handling. NS-398 was dissolved in dimethylsulfoxide (DMSO). […] To control for the effect of DMSO, mice in the STZ group received 40 μl injections of DMSO for the same number of days as the STZ+NS-398 group. At different time intervals after the treatments, tail tip blood was drawn and used for the measurement of blood glucose levels and/or glycated hemoglobin. [table] […] PBS (control group) for 5 consecutive days. […] The STZ group received only STZ injections.

[5] = Tolerability of indomethacin in STZ-treated mice; conditions: indomethacin 3 mg/Kg/day with STZ 40 mg/Kg/day for 5 days; 5 mice/group
Experimental: In experiment 4, two groups of mice (5 mice/group) were treated with STZ (40 mg/Kg/day for 5 days). One group of these mice received daily treatments of indomethacin (3 mg/Kg/day). Indomethacin was dissolved in DMSO and an injection volume of 40 μl was used.

[6] = tested on: IDDM in low-dose STZ model; conditions: cited from earlier work

For `CS(=O)(=O)c1ccc(C2=C(c3ccc(F)cc3)CCC2)cc1` [SC-57666, 1-[2-(4-Fluorophenyl)cyclopenten-1-yl]-4-(methylsulfonyl) benzene], the ED50 [1] is given as “low”.

For `CCSc1nnc(-c2cc(C(C)(C)C)c(O)c(C(C)(C)C)c2)s1` [PD164387], the ED40 [1] is given as 7.1 mg/kg.

For `CS(=O)(=O)Nc1cc2c(cc1Sc1ccc(F)cc1F)C(=O)CC2` [L-745,337, 5-methane sulfonamido-6-(2,4-difluorothiophenyl)-1-indanone], the ED50 [1] is listed as 2 mg/kg and the ID50 [1] is listed as 0.4 mg/kg.

For `Cc1ccc(-c2ncc(Cl)cc2-c2ccc(S(C)(=O)=O)cc2)cn1` [L-791,456, 5-Chloro-3(4-methylsulfonyl) phenyl-2-(2-methyl-5-pyridinyl) pyridine], the ED50 [1] is listed as 0.6 mg/kg.

For `Cc1nc(C2CCCCC2)c(-c2ccc(S(N)(=O)=O)c(F)c2)o1` [JTE-522, 4-(4-cyclohexyl-2-methyloxazol-5-yl)-2-Fluorobenzene Sulfonamide], the IC50 (COX-2) is given as 15.1 nM.

With `S=C(S)N1CCCC1` [PDTC, Pyrrolidine Dithiocarbamate] the “protection from STZ-induced IDDM” value (STZ-induced IDDM [2]; PDTC daily from day 1 of STZ treatment) was “protected from STZ-induced IDDM”, the “Blood Glucose Level” value (STZ-induced IDDM [2]; day 11 of treatment) was 190.8 ± 23.2 mg/dL and the “Blood Glucose Level” value (STZ-induced IDDM [2]; day 19 of treatment) was 199.6 mg/dL and 199.6 ± 35.6 mg/dL.

In the case of `CN(N=O)C(=O)N[C@H]1C(O)O[C@H](CO)[C@@H](O)[C@@H]1O` (mixture of isomers) [STZ, Streptozotocin], the “Blood Glucose Level” value (STZ-induced IDDM [3]; 30 days following completion of STZ treatment, STZ 40 mg/Kg/day 5 days, NS-398 5 mg/Kg/day ip from day 1, continued 6 days after STZ, mean ± SD) is reported as 304.0 ± 91.6 mg/dL, the “glycated hemoglobin level (FIG. 2)” value (STZ-induced IDDM [3]; 30 days following treatment, STZ 40 mg/Kg/day 5 days ± NS-398) is reported as “significantly elevated levels of glycated hemoglobin” and the “histology of pancreatic islet β cells (aldehyde fuchsin, FIG. 3)” value (STZ-induced IDDM [3]; 35 days following multiple low-dose STZ ± NS-398) is reported as “nearly completely destroyed”. For the same molecule, the “blood glucose level (FIG. 1)” value (STZ-induced IDDM [3]; experiment 1: STZ 40 mg/Kg/day ip 5 days, NS-398 10 mg/Kg/day, 11 injections from day 1, followed up to 28 days after cessation of NS-398) was “progressive rise in the blood glucose concentration”, the “Blood Glucose Level” value [4] was 311.1 ± 80.7 mg/dL and the “Blood Glucose Level” value (STZ-induced IDDM [2]; day 11 of treatment) was 249.0 ± 50.2 mg/dL. For the same molecule, the “Blood Glucose Level” value (STZ-induced IDDM [2]; day 19 of treatment) was 446.7 mg/dL and 446.7 ± 106.1 mg/dL.

With `COc1ccc2c(c1)c(CC(=O)O)c(C)n2C(=O)c1ccc(Cl)cc1` [indomethacin] the “mice that died during or following treatment” value [5] was “Four out of five”.

In the case of `CC(C)(C)[N+]([O-])=Cc1ccccc1` [PBN, phenyl N-tert-butylnitrone], the “protection against IDDM” value [6] is listed as “protect against IDDM”.

For `CS(=O)(=O)Nc1cc2c(cc1Oc1ccc(F)cc1F)C(=O)CC2` [Flosulide], the ID50 [1] is given as less than 0.1 mg/kg.
